Experimental data reported in patent US20240400591A1 (Jacobio Pharmaceuticals Co., Ltd., priority 2021, published 2024).
Like-named read-outs stand apart in the source and are kept apart here.

What was measured:
NUGC3 (P53 Y220C) = test: Cell viability assay (CellTiter-Glo, 6 days), NUGC3; type: cell-based; conditions: cell viability, 6 days, CellTiter-Glo, read-out: NUGC3 (P53 Y220C) IC50
Description: (§1) Cells were collected and counted. A desired number of cells was seeded into 96-well microplate and cultured in 37° C. cell incubator overnight. Compounds dissolved in cell culture medium were added into cell plate and cultured for 6 days. After balancing CellTiter-Glo reagent and cells at room temperature for 30 min, equal volume of CellTiter-Glo reagents was added to assay plate and shaken for 2 min for cell lysis. The cells were balanced at room temperature for 10 minutes and Luminescence signal was read using Envision. The percent of cell viability for compounds treated wells were normalized between High control and low control. Wells containing cell culture medium and same percentage DMSO sewved as Low control. Wells containing cells and same percentage DMSO sewved as High control. Cell viability (%)=(Luminescence readoutCompound treated−Luminescence readoutLow control)/(Luminescence readoutHigh control−Luminescence readoutLow control)*100%. Then the data were analyzed either by fitting a 4-parameter logistic model or by Excel to calculate IC50 values. And the IC50 was the concentration at 50% Cell viability on the curve.

[1] = biological target: T1, His-p53 Y220C (94-294) protein (Homo sapiens, UniProt P04637, Y220C); test: In vitro DNA binding assay (HTRF); type: biochemical; conditions: % activation normalized to 2 μM Ref-1a high control
T1 construct: His-p53 Y220C (94-294) protein

NUGC4 (P53 WT) = test: Cell viability assay (CellTiter-Glo, 6 days), NUGC4; type: cell-based; conditions: cell viability, 6 days, CellTiter-Glo, read-out: NUGC4 (P53 WT) IC50
Description: as §1

[2] = tested on: NUGC-3_P53_Luc single clonal cell line (p53 Y220C); test: Reporter gene assay (p53 RE luciferase); type: cell-based; conditions: Homo sapiens, NUGC-3, 6 h, luciferase reporter, 6 hours, normalized to Ref-1a (10 μM) high control; read-out: p53(Y220C)_NUGC-3 EC50
Description: NUGC-3_P53_Luc single clonal cell line was established using pGL4.38[luc2P/p53 RE/Hygro] Vector (E365A, promega). NUGC-3_P53-Luc single clonal cells were cultured in 37° C. cell incubator before use. NUGC-3-P53-Luc cells were collected and washed twice with PBS to remove phenol red and then resuspended in medium to a proper concentration. Tested compound dilutions were transferred into 384 well assay plates (PerkinElmer). A desired number of cells was seeded into the assay plate and cultured for 6 hours at 37° C. cell incubator. Britelite plus Luciferase Assay Reagent were added into each well and the luminescence value was recorded on Envision. The percent of activity value of compounds treated wells was normalized between high control and low control. Wells containing cells and Ref-1a (10 μM) sewved as high control, and wells containing cells and same percentage of DMSO sewved as low control. Activity value (%)=(Luminescence readoutCompound treated−Luminescence readoutLow control)/(Luminescence readoutHigh control−Luminescence readoutLow control)*100%. Then the data were analyzed either by fitting a 4-parameter logistic model or by Excel to calculate EC50 values and the EC50 was the concentration at 50% Activity on the curve.

| Structure (SMILES) | EC50 [1] | further results |
| --- | --- | --- |
| CN1CCC(Nc2cccc3c(CC(F)(F)F)c(C#CCNc4ccc(P(C)(C)=O)cc4OC4CC4)sc23)[C@@H](F)C1 (stereo in doubt) [Example 106, (3-cyclopropoxy-4-((3-(7-(((Z)-3-fluoro-1-methylpiperidin-4-yl)amino)-3-(2,2,2-trifluoroethyl)benzo[b]thiophen-2-yl)prop-2-yn-1-yl)amino)phenyl)dimethylphosphine oxide] |  | IC50 (NUGC3 (P53 Y220C); Homo sapiens, NUGC-3, 144 h): 780 nM; EC50 [2]: 90 nM; IC50 (NUGC4 (P53 WT); Homo sapiens, NUGC-4, 144 h): 3800 nM |
| CCP(=O)(CC)c1ccc(NCC#Cc2sc3c(NC4CCN(C5CCOCC5)CC4)cccc3c2CC(F)(F)F)c(OC)c1 [Example 155, diethyl(3-methoxy-4-((3-(7-((1-(tetrahydro-2H-pyran-4-yl)piperidin-4-yl)amino)-3-(2,2,2-trifluoroethyl)benzo[b]thiophen-2-yl)prop-2-yn-1-yl)amino)phenyl)phosphine oxide] | 147 nM |  |
| CCP(=O)(CC)c1ccc(NCC#Cc2sc3c(N[C@@H]4CCN(C5CCOCC5)C[C@@H]4F)cccc3c2CC(F)(F)F)c(OC)c1 [Example 156, diethyl(4-((3-(7-(((3S,4R)-3-fluoro-1-(tetrahydro-2H-pyran-4-yl)piperidin-4-yl)amino)-3-(2,2,2-trifluoroethyl)benzo[b]thiophen-2-yl)prop-2-yn-1-yl)amino)-3-methoxyphenyl)phosphine oxide] | 108 nM |  |
| CN1CC[C@@H](Nc2cccc3c(CC(F)(F)F)c(C#CCNc4ccc(P(C)(C)=O)c5c4OC(F)(F)O5)sc23)[C@@H](F)C1 [Example 164, (2,2-difluoro-7-((3-(7-(((3S,4R)-3-fluoro-1-methylpiperidin-4-yl)amino)-3-(2,2,2-trifluoroethyl)benzo[b]thiophen-2-yl)prop-2-yn-1-yl)amino)benzo[d][1,3]dioxol-4-yl)dimethylphosphine oxide] | 120 nM |  |
| COc1nc(P(C)(C)=O)ccc1NCC#Cc1sc2c(N[C@@H]3CCN(C4CCOCC4)C[C@@H]3F)cccc2c1CC(F)(F)F [Example 179, (5-((3-(7-(((3S,4R)-3-fluoro-1-(tetrahydro-2H-pyran-4-yl)piperidin-4-yl)amino)-3-(2,2,2-trifluoroethyl)benzo[b]thiophen-2-yl)prop-2-yn-1-yl)amino)-6-methoxypyridin-2-yl)dimethylphosphine oxide] | 134 nM |  |
| CN1CC[C@@H](Nc2cccc3c(CC(F)(F)F)c(C#CCNc4ccc(P(C)(C)=O)cc4-c4cc[nH]n4)sc23)[C@@H](F)C1 [Example 200, (4-((3-(7-(((3S,4R)-3-fluoro-1-methylpiperidin-4-yl)amino)-3-(2,2,2-trifluoroethyl)benzo[b]thiophen-2-yl)prop-2-yn-1-yl)amino)-3-(1H-pyrazol-3-yl)phenyl)dimethylphosphine oxide] | 25 nM | EC50 [2]: 60 nM; IC50 (NUGC4 (P53 WT); Homo sapiens, NUGC-4, 144 h): 13100 nM |
| CN1CC[C@@H](Nc2cccc3c(CC(F)(F)F)c(C#CCNc4cc(P(C)(C)=O)n[nH]4)sc23)[C@@H](F)C1 [Example 204, (5-((3-(7-(((3S,4R)-3-fluoro-1-methylpiperidin-4-yl)amino)-3-(2,2,2-trifluoroethyl)benzo[b]thiophen-2-yl)prop-2-yn-1-yl)amino)-1H-pyrazol-3-yl)dimethylphosphine oxide] | 816 nM |  |
| COc1nc(P(C)(C)=O)cnc1NCC#Cc1sc2c(N[C@@H]3CCN(C)C[C@@H]3F)cccc2c1CC(F)(F)F [Example 209, (5-((3-(7-(((3S,4R)-3-fluoro-1-methylpiperidin-4-yl)amino)-3-(2,2,2-trifluoroethyl)benzo[b]thiophen-2-yl)prop-2-yn-1-yl)amino)-6-methoxypyrazin-2-yl)dimethylphosphine oxide] | 211 nM |  |
| CN1CC[C@@H](Nc2cccc3c(CC(F)(F)F)c(C#CCNc4ccc(P(C)(C)=O)nc4C#N)sc23)[C@@H](F)C1 [Example 224, 6-(dimethylphosphoryl)-3-((3-(7-(((3S,4R)-3-fluoro-1-methylpiperidin-4-yl)amino)-3-(2,2,2-trifluoroethyl)benzo[b]thiophen-2-yl)prop-2-yn-1-yl)amino)picolinonitrile] | 87 nM |  |

More lines, main results first:

| EC50 [1] | Structure (SMILES) | further results |
| --- | --- | --- |
| 70 nM | COc1cc(P(C)(C)=O)ccc1NCC#Cc1sc2c(NC3CCN(C)CC3C(F)(F)F)cccc2c1CC(F)(F)F (racemic) [Example 169, (3-methoxy-4-((3-(7-(((Z)-1-methyl-3-(trifluoromethyl)piperidin-4-yl)amino)-3-(2,2,2-trifluoroethyl)benzo[b]thiophen-2-yl)prop-2-yn-1-yl)amino)phenyl)dimethylphosphine oxide] | IC50 (NUGC3 (P53 Y220C); Homo sapiens, NUGC-3, 144 h): 1630 nM; IC50 (NUGC4 (P53 WT); Homo sapiens, NUGC-4, 144 h): 4330 nM |
| 76 nM | COc1cc(P(C)(C)=O)ccc1NCC#Cc1sc2c(NC3CCN(C)CC3C(F)(F)F)cccc2c1CC(F)(F)F (racemic) [Example 170, (3-methoxy-4-((3-(7-(((E)-1-methyl-3-(trifluoromethyl)piperidin-4-yl)amino)-3-(2,2,2-trifluoroethyl)benzo[b]thiophen-2-yl)prop-2-yn-1-yl)amino)phenyl)di methylphosphine oxide (racemic)] | IC50 (NUGC3 (P53 Y220C)): 1640 nM; IC50 (NUGC4 (P53 WT)): 3720 nM |
| 60 nM | COc1cc(NCC#Cc2sc3c(NC4CCN(C)CC4F)cccc3c2CC(F)(F)F)ccc1P(C)(C)=O (stereo not shown) [Example 151, (4-((3-(7-(((Z)-3-fluoro-1-methylpiperidin-4-yl)amino)-3-(2,2,2-trifluoroethyl)benzo[b]thiophen-2-yl)prop-2-yn-1-yl)amino)-2-methoxyphenyl)dimethylphosphine oxide] |  |
| 178 nM | CN1CC[C@@H](Nc2cccc3c(CC(F)(F)F)c(C#CCNc4ccc(S(C)(=O)=O)cc4P(C)(C)=O)sc23)[C@@H](F)C1 [Example 171, (2-((3-(7-(((3S,4R)-3-fluoro-1-methylpiperidin-4-yl)amino)-3-(2,2,2-trifluoroethyl)benzo[b]thiophen-2-yl)prop-2-yn-1-yl)amino)-5-(methylsulfonyl)phenyl)dimethylphosphine oxide] |  |
| 96 nM | COc1cc(P(C)(C)=O)ccc1NCC#Cc1sc2c(N[C@@H]3CCN(C4CC(C)(C)OC(C)(C)C4)C[C@@H]3F)cccc2c1CC(F)(F)F [Example 181, (4-((3-(7-(((3S,4R)-3-fluoro-1-(2,2,6,6-tetramethyltetrahydro-2H-pyran-4-yl)piperidin-4-yl)amino)-3-(2,2,2-trifluoroethyl)benzo[b]thiophen-2-yl)prop-2-yn-1-yl)amino)-3-methoxyphenyl)dimethylphosphine oxide] |  |
| 205 nM | COc1cc(P(C)(C)=O)cc(F)c1NCC#Cc1sc2c(N[C@@H]3CCN(C)C[C@@H]3F)cccc2c1CC(F)(F)F [Example 206, (3-fluoro-4-((3-(7-(((3S,4R)-3-fluoro-1-methylpiperidin-4-yl)amino)-3-(2,2,2-trifluoroethyl)benzo[b]thiophen-2-yl)prop-2-yn-1-yl)amino)-5-methoxyphenyl)dimethylphosphine oxide] |  |
| 126 nM | COc1cc(P(C)(C)=O)cnc1NCC#Cc1sc2c(N[C@@H]3CCN(C)C[C@@H]3F)cccc2c1CC(F)(F)F [Example 207, (6-((3-(7-(((3S,4R)-3-fluoro-1-methylpiperidin-4-yl)amino)-3-(2,2,2-trifluoroethyl)benzo[b]thiophen-2-yl)prop-2-yn-1-yl)amino)-5-methoxypyridin-3-yl)dimethylphosphine oxide] |  |
| 169 nM | CSc1c(NCC#Cc2sc3c(N[C@@H]4CCN(C)C[C@@H]4F)cccc3c2CC(F)(F)F)ccc(P(C)(C)=O)c1F [Example 221, (2-fluoro-4-((3-(7-(((3S,4R)-3-fluoro-1-methylpiperidin-4-yl)amino)-3-(2,2,2-trifluoroethyl)benzo[b]thiophen-2-yl)prop-2-yn-1-yl)amino)-3-(methylthio)phenyl)dimethylphosphine oxide] |  |
